From patent publication US20250270165A1, “COMPOSITIONS FOR AND METHODS OF MODULATING RNA STABILITY” (Duke University, priority 2022, published 2025)
Values joined by “and” are separate entries in the source; they are usually repeats but may differ in a detail not shown here. Equal entries are not always repeated. “Also recorded” adds a separate entry of the source. Where two headings read alike, the source gives them in different places.

Assays:
MALAT1 triple helix [1] = experiment: RiboGreen indicator displacement assay (IDA); type: binding, human
Procedure: Indicator Displacement Assay (DIA).
The protocol was adapted from a previously reported procedure. (Donlic A, et al. (2020) Nucleic Acids Res. 48(14):7653-7664). A serial dilution of the MALAT1 triple helix RNA was performed in HEPES buffer (20 mM HEPES-KOH, 52.6 mM KCl. 0.1 mM MgCl2, pH=7.4) in a 96 well plate in triplicate. […] of each dilution were transferred to a 384 well plate followed by […] of a 500 nM solution of RiboGreen dye in the same buffer (Invitrogen™). The plates were excited at 487 nm (8 nm slit) and emission was recorded at 530 nm (8 nm slit, focal height 11.3 mm) using a CLARIOstar plate reader (BMG labtech). The affinity of the dye for the RNA construct was determined by fitting the raw fluorescence in GraphPad Prism version 8.3.1 for Macintosh (GraphPad Software, La Jolla California USA, (www.graphpad.com)) by fitting to the Log[Agonist]vs. response-variable slope model that using Equation (1) below.
where Y is normalized % change in fluorescence intensity, X is RNA concentration, Bottom is lowest fluorescence % change and Top is highest fluorescence % change. Affinity of the dye for the RNA construct was used as the ideal RNA concentration (174 nM) for small molecule titrations.
A serial dilution of small molecule (0, 0.5 μM, […], 2.5 μM, […], 7.5 μM, 10.0 μM, 12.5 μM, 25 μM, 50 μM, 75 μM, 100 μM, 125 µM, 150 µM, 250 μM, 500 µM) was performed in HEPES buffer (20 mM HEPES-KOH, 52.6 mM KCl, 0.1 mM MgCl2, pH=7.4) in a 96 well plate in triplicate. Then, 8 μL of each dilution were transferred to a 384 well plate, followed by 8 μL of a 174 nM solution of MALAT1 RNA and 0.5 mM of RiboGreen™ (Invitrogen™). The RNA was previously annealed by heating to 95° C. for 5 minutes and cooling to 0° C. on ice for 30 minutes. The 384 well plates were shaken for 5 minutes, centrifuged at 4000 rpm for 1 minute, and incubated in the dark for 20 minutes. The plates were excited at 487 nm (8 nm slit) and emission was read at 525 nm (8 nm slit, focal height […]) using a CLARIOstar plate reader (BMG Labtech). Percent fluorescence indicator displacement (% FID) was calculated by subtracting and, subsequently, dividing by the blank wells with RNA-dye complex and no small molecule as shown in Equation (2).
Where F0 is the fluorescence of the blank well with RNA+dye and no small molecule and F is the fluorescence of the well with all three components (RNA+dye+small molecule).
Each technical triplicate was averaged, and the resulting FID values were averaged between three independent experiments. The binding curve and Log(CD50) value was obtained by using a non-linear fit curve (Log[Agonist]vs. response) with variable slope at four parameters (GraphPad Prism Software version for Macintosh 8.3.1, La Jolla, California, USA (www.graphpadprism.com)) as shown in Equation 1. Reported values are averages of three independent experiments standard deviation.

LNCaP cells = experiment: MTT assay in LNCaP cells; type: cell-based, human; conditions: for IC50: Homo sapiens
Text: The MTT reagent (3-(4,5-dimethylthiazol-2-yl)-2,5-diphenyl-2H-tetrazolium bromide) is a mono-tetrazolium salt that consists of a positively charged quaternary tetrazole ring core containing four nitrogen atoms surrounded by three aromatic rings including two phenyl moieties and one thiazolyl ring. Reduction of MTT results in disruption of the core tetrazole ring and the formation of a violet-blue water-insoluble molecule called formazan. The MTT reagent can pass through the cell membrane as well as the mitochondrial inner membrane of viable cells presumably due to its positive charge as well as its lipophilic structure and is reduced to formazan by metabolically active cells. The chromogenic nature of this redox chemical reaction provides a colorimetric-based measurement of intracellular formazan production based on which the MTT assay was developed. Consequently, the assay has extensive utility as a cell metabolic activity assay.
In the first set of […] experiments, four (4) members of the small molecule library were examined in a MTT assay. […] The IC50 values and trends were similar to the apparent small molecule affinities for MALAT-1, supporting a MALAT-1 related mechanism for the toxicity. […] Ongoing cytotoxicity studies using other DMZ small molecule analogs (as well as DMZ-5, DMZ-P13, and DMZ-P17) continue to illuminate mechanism of action regarding toxicity to cancer cells.

MALAT1 triple helix [2] = experiment: RNase A enzymatic degradation assay; type: biochemical, human; conditions: for stabilizing or destabilizing compound as listed in the description: listing in an aspect, degradation in an enzymatic assay versus control
Procedure: RNase A Enzymatic Degradation Assay.
The procedure was adapted from a published protocol for exonucleolytic enzymatic degradation assay. (Donlic A, et al. (2020) Nucleic Acids Res. 48(14):7653-7664). The MALAT1 destabilizing small molecules published by Le Grice (Abulwerdi F A, et al. (2019) ACS Chem Biol. 14(2):223-235) and co-workers SM5 and SM16 were purchased from ChemBridge. For a typical 70 μL reaction, […] of MALAT1 triple helix RNA was annealed in the same buffer used for IDA and DSF experiments (20 mM HEPES-KOH, 52 mM KCl, 0.1 mM MgCl2, pH=7.4) by heating at 95° C. for 3 minutes, snap-cooling on ice for 10 minutes, and leaving the solution at room temperature for 1 hr.
RNase A enzyme (ThermoFisher) was diluted to 1.46 nM and incubated with 1 M NaCl for 30-35 minutes to achieve ssRNA selectivity as reported. (Struhl K, et al. (1989) Current Protocols in Molecular Biology. 8(1):3.13.1-3.13.3). Next, the RNA was mixed with […] of a CC-rich DNA duplex, 0.2 mM of small molecule/DMSO and incubated at room temperature for 20 minutes. Following the incubation, […] of RNase A was added, and the reaction was incubated at 37° C. for 1 hour in a thermal cycler with a heated lid (Eppendorf). 4 μL timepoint aliquots were taken at 0, 5, 10, 30, and 60 minutes, 4 μL of 2×RNA loading dye was added to each aliquot (ThermoFischer Scientific), and samples were stored at −80° C. prior to gel analysis. Reactions were analyzed on pre-cast 15% PAGE-Urea gels (Invitrogen) in 1×TBE buffer. Aliquots were thawed from −80° C. storage and heated to 95° C. for 15 minutes prior to gel loading and […] were loaded in each well. Gels were run for 45 minutes at 180 V, stained with Diamond™ Nucleic Acid dye (Promega), and visualized on an iBright 500 (ThermoFisher). DMSO controls were ran with every set of 4 small molecules to ensure consistency of enzyme activity and RNA integrity. Gel band intensity of the MALAT1 triple helix and DNA loading control were quantified using ImageJ software. (Rueden C T, et al. (2017) BMC Bioinformatics. 18(1):529).
To quantify time-dependent endonucleolytic degradation for each sample, the intensity was normalized using Equation (3), and fold-difference was calculated as listed in Equation (4) as previously reported. (Donlic A, et al. (2020) Nucleic Acids Res. 48(14):7653-7664).
where y is fold-difference of the exonucleolytic degradation for the specific sample, with normalized areas for its specific time point x and time point 0 calculated as described in Equation (3). Percent RNA degraded was calculated for every time point using Equation (5).
% RNA degraded=(Normalized area (t0)−Normalized area (tx))*100 (Equation 5)
Experimental results shown in FIG. 6C are plotted as three independent replicates and standard deviation between replicates as error bars. Relative fold change between treated condition and DMSO was calculated from Equation (6).

MALAT1 triple helix [3] = experiment: Differential scanning fluorimetry (DSF), triplex thermal stability; type: binding, human
Procedure: Differential Scanning Fluorimetry. Differential scanning fluorimetry experiments were performed as previously reported. (Donlic A, et al. (2020) Nucleic Acids Res. 48(14):7653-7664). All experiments were performed in white 96 well plates in a LightCycler® 96 (Roche). In a typical experiment, 4 μM of RNA was annealed in the same buffer used for indicator displacement assays (20 mM HEPES-KOH, 52.6 mM KCl, 0.1 mM MgCl2, pH=7.4) by heating at 95° C. for 3 minutes, snap-cooling on ice for 10 minutes, and leaving the solution at room temperature for 1 hr. Then, 42 μL of this solution was aliquoted to wells and 5 μM of ligand was added (2.5 μL of water, 2.0 μL of DMSO, 0.5 μL of 500 μM small molecule stock). The mixture was left to incubate at room temperature for 5 minutes, after which 3 μL of a 20 µM Quant-iT™ RiboGreen™ (ThermoFisher Scientific) dye stock solution in appropriate buffer was added to each well. The 96 well plate was then sealed with an optically clear foil and centrifuged for 1 minute at 4000 rpm prior to being placed in the instrument. The light cycler program was created by selecting the melting curve method; fluorescence intensity was monitored using the SYBR Green I/HRM dye filter combination (465-510 nm) from 37-98° C. at a ramp rate of 0.01° C./second with 150 acquisitions per ° C. Melting profiles were obtained by Tm analysis in the LightCycler® 96 software (SW 1.1).

[4] = 48 hours, read-out: IC50 at 48 hours
[5] = 5-minute time point, relative to DMSO control

N=C(NCc1ccc(Cl)cc1)c1ccc(/N=N/Nc2ccc(C(=N)NCc3ccc(Cl)cc3)cc2)cc1 [DMZ-P5] was tested, and the “fold higher affinity with the para scaffold versus the ortho scaffold (DMZ-O5)” value (MALAT1 triple helix [1]; subunit R-5) was 13 fold.

N=C(NCCC1CCN(Cc2ccccc2)CC1)c1ccc(/N=N/Nc2ccc(C(=N)NCCC3CCN(Cc4ccccc4)CC3)cc2)cc1 [DMZ-P13] was tested, and the IC50 (LNCaP cells; [4]) was 4.1 µM and the IC50 (LNCaP cells; 72 hours, read-out: IC50 at 72 hours) was 2.7 µM.

With N=C(NCc1ccc(Cl)cc1)c1ccccc1/N=N/Nc1ccccc1C(=N)NCc1ccc(Cl)cc1 [DMZ-O5] the “stabilizer or destabilizer of MALAT1 triplex (RNase A degradation)” value (from here on “stabilizer or destabilizer”) (MALAT1 triple helix [2]; [5]) was “much stronger destabilizing effect than DMZ-P5”.

With CN(C)CCCNC(=N)c1ccc(/N=N/Nc2ccc(C(=N)NCCCN(C)C)cc2)cc1 [DMZ-P1] the “effect on MALAT1 triplex thermal stability (DSF), in words” value (shortened to “effect … in words”) (MALAT1 triple helix [3]) was “increases in thermal stability”, the “effect on Tm1 (ΔTm1)” value (MALAT1 triple helix [3]; equimolar ratio of RNA:small molecule, compared to DMSO vehicle) was “approximately 6.1 °C” and the “graded stabilizer/destabilizer class (change in degradation)” value (MALAT1 triple helix [2]; [5]) was “weak destabilizer (weak destabilizer (<50% increase in degradation))”. For the same compound, the “stabilizer or destabilizer” value (MALAT1 triple helix [2]; [5]) was “destabilizers”.

For N=C(NCc1ccccc1Cl)c1ccccc1/N=N/Nc1ccccc1C(=N)NCc1ccccc1Cl [DMZ-O6], the “stabilizing or destabilizing compound as listed in the description” value (shortened to “stabilizing or destabilizing compound”) (MALAT1 triple helix [2]) was “destabilizing; also recorded: stabilizing”.

N=C(NCc1ccccc1)c1ccccc1/N=N/Nc1ccccc1C(=N)NCc1ccccc1 [DMZ-O4] was tested, and the “affinity for the MALAT1 triple helix (IDA), in words” value (“affinity for the MALAT1 triple helix” for short) (MALAT1 triple helix [1]) was “no affinity”.

N=C(NCc1ccccc1)c1cccc(/N=N/Nc2cccc(C(=N)NCc3ccccc3)c2)c1 [DMZ-M4] was tested, and the “affinity for the MALAT1 triple helix” value (MALAT1 triple helix [1]) was “mediocre affinity”, the CD50 (50% competitive displacement dose) (MALAT1 triple helix [1]; 16-point titration, 20 mM HEPES-KOH, 52 mM KCl, 0.1 mM MgCl2, pH 7.4) was 36.6 µM and the “effect … in words” value (MALAT1 triple helix [3]) was “increases in thermal stability; also recorded: mediocre affinity and thermal stabilization”. The “increase of the amount of MALAT1 degraded at 5 minutes” value (MALAT1 triple helix [2]; 5-minute time point) was 2 fold and > 2 fold and the “stabilizer or destabilizer” value (MALAT1 triple helix [2]; [5]) was “destabilizers”.

With N=C(NCCc1cccnc1)c1cccc(/N=N/Nc2cccc(C(=N)NCCc3cccnc3)c2)c1 [DMZ-M3] the “affinity for the MALAT1 triple helix” value (MALAT1 triple helix [1]) was “moderate affinity” and the “effect … in words” value (MALAT1 triple helix [3]) was “negligible thermal stabilization”.

CN(/N=N/c1ccc(C(=N)NCCC2CCN(Cc3ccccc3)CC2)nc1)c1ccc(C(=N)NCCC2CCN(CC3C=CC=CC3)CC2)nc1 (stereo not shown) [DMZ-NMe-mPy-P1] was tested, and the “stabilizing or destabilizing compound” value (MALAT1 triple helix [2]) was “destabilizing”.

In the case of CCN(CCCCNC(=N)c1ccc(N/N=N/c2ccc(C(=N)NCCCN(CC)Cc3ccccc3)cc2)cc1)Cc1ccccc1 [DMZ-P14], the “stabilizing or destabilizing compound” value (MALAT1 triple helix [2]) is reported as “stabilizing; also recorded: destabilizing”.

With CN(C)c1ccc(CN2CCC(CCNC(=N)c3ccc(/N=N/N(C)c4ccc(C(=N)NCCC5CCN(Cc6ccc(N(C)C)cc6)CC5)cc4)cc3)CC2)cc1 [DMZ-NMe-P38] the “stabilizing or destabilizing compound” value (MALAT1 triple helix [2]) was “destabilizing”.

N=C(NCc1ccco1)c1cccc(/N=N/Nc2cccc(C(=N)NCc3ccco3)c2)c1 [DMZ-M15] was tested, and the “affinity for the MALAT1 triple helix” value (MALAT1 triple helix [1]) was “moderate affinity”, the “effect … in words” value (MALAT1 triple helix [3]) was “negligible thermal stabilization” and the “stabilizing or destabilizing compound” value (MALAT1 triple helix [2]) was “stabilizing; also recorded: destabilizing”.

For CN1CCN(CCNC(=N)c2cccc(/N=N/Nc3cccc(C(=N)NCCN4CCN(C)CC4)c3)c2)CC1 [DMZ-M10], the “IC50 relative to other tested library members, in words” value (LNCaP cells) was “higher IC50”.

With N=C(NCc1ccc(-c2ccccc2)cc1)c1cccc(/N=N/Nc2cccc(C(=N)NCc3ccc(-c4ccccc4)cc3)c2)c1 [DMZ-M7] the IC50 (LNCaP cells; [4]) was 2.9 µM.
